Test results from PMC5458257, “Identification of JL1037 as a novel, specific, reversible lysine-specific demethylase 1 inhibitor that induce apoptosis and autophagy of AML cells” (Oncotarget, 2017).

Assays:
Type in all cases: biochemical
[1] = target: T1, Lysine-specific demethylase 1 (LSD1) (Homo sapiens, UniProt O60341); assay: LSD1 Fluorimetric Drug Discovery kit (Enzo BML-AK544), HRP-coupled, H3K4me2 substrate
T1 construct: gene KDM1A

[2] = target: T2, MAO-B (Homo sapiens, UniProt P27338); assay: MAO-Glo luminescent enzyme assay (Promega V1401), selectivity test
T2 construct: gene MAOB
T2 sequence (P27338 2-520): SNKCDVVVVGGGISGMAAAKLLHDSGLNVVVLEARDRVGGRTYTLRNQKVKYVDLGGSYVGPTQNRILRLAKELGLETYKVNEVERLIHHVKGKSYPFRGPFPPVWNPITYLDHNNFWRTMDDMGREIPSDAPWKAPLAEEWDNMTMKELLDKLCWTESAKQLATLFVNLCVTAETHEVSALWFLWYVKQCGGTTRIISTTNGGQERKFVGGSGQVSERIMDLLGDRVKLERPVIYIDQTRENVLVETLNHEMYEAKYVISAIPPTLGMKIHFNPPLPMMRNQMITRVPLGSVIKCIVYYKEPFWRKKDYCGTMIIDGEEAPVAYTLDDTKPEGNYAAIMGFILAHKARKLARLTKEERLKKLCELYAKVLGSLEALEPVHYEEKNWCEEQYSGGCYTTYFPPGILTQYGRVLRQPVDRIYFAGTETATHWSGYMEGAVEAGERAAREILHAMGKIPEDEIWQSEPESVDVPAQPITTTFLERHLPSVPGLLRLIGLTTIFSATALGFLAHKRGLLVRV
From the text: MAO-Glo luminescent enzyme assay (Promega V1401), selectivity test on MAO-B | JL1037 enzymatic inhibitory activity against LSD1, MAO-A and MAO-B.

[3] = target: T3, MAO-A (Homo sapiens, UniProt P21397); assay: as above
T3 construct: gene MAOA
T3 sequence (P21397 1-527): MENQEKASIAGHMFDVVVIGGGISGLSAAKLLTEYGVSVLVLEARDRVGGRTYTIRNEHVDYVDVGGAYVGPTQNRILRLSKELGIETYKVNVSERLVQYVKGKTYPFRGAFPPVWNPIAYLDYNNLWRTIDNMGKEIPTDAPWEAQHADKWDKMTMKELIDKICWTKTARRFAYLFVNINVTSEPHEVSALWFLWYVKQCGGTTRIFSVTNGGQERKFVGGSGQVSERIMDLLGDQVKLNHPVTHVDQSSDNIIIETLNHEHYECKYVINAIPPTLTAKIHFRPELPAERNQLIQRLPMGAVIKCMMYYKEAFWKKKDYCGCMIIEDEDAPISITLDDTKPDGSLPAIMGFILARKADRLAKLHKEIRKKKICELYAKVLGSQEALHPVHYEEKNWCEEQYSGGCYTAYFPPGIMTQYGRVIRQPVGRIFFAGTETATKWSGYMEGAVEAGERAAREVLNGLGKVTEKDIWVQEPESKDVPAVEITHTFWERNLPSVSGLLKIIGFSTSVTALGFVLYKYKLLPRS
From the text: MAO-Glo luminescent enzyme assay (Promega V1401), selectivity test on MAO-A | JL1037 enzymatic inhibitory activity against LSD1, MAO-A and MAO-B.

JL1037
IC50 [1]: 110 nM | IC50 [2]: 1770 nM | IC50 [3]: 1920 nM
